Target: T1, IFN-y (Homo sapiens, UniProt P01579)
T1 sequence (P01579 24-166): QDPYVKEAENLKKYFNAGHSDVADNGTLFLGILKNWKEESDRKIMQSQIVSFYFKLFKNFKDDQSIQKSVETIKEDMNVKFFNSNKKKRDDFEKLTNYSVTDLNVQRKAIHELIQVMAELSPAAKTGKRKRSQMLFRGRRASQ
Experiment: Binding of PEG-modified form to IFN-y by SPR (Surface Plasmon Resonance)
Conditions: PEG (40000) on base X
Text: With the base of X produced in Example 2, Aptamer 3 (1 eq) having a primary amine side chain and commercially available NHS-PEG (40000) (1.5 eq) were mixed in a phosphate buffer at pH 7 to 8 and the mixture was stirred for 1 day at room temperature. The reaction solution was concentrated and the resulting modified form was purified by reversed phase HPLC to obtain a PEG-modified form of Aptamer 3.

## PEG-modified form of Aptamer 3: Aptamer 3 having a primary amine side chain at X reacted with NHS-PEG (40000) (CCCGCCCGGGTCCGCGAAGCGGTAGGTNTGGGCTAGGCNGCTGGCGGGCGCGNAGCG; DNA aptamer, amine side-chain residue X conjugated to 40 kDa PEG, further chemistry not given here)
  ability to bind to IFN-y: retained its ability to bind to IFN-y
Listed as PEG-modified form of a DNA aptamer having the sequence of SEQ ID NO: 3
  ability to bind to IFN-y: capable of binding to IFN-γ
